Toxic doses and inconclusive results are not listed. Rule as the data show it: active = T/C of 150% or more; inactive = T/C below 125%.
System: L1210 leukemia ip in BDF1 mice, survival T/C
Test: NCI In Vivo Anticancer Drug Screen. Data for tumor model L1210 Leukemia (intraperitoneal) in B6D2F1 (BDF1) mice
Conditions: endpoint: mean survival time, higher = longer survival
In short: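 Tumor cells were implanted, animals were treated, and survival was followed. The result divides the treated measurement by the vehicle-control measurement.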

[1] = dose: 100.0 mg/kg/injection, schedule: Q01DX001 (ip), vehicle: Klucel (hydroxypropylcellulose) (HPC)
[2] = dose: 200.0 mg/kg/injection, schedule: Q01DX001 (ip), vehicle: Klucel (hydroxypropylcellulose) (HPC)
[3] = dose: 400.0 mg/kg/injection, schedule: Q01DX001 (ip), vehicle: Klucel (hydroxypropylcellulose) (HPC)
[4] = dose: 100.0 mg/kg/injection, schedule: Q01DX001 (ip), vehicle: saline with Tween-80
[5] = dose: 200.0 mg/kg/injection, schedule: Q01DX001 (ip), vehicle: saline with Tween-80
[6] = dose: 400.0 mg/kg/injection, schedule: Q01DX001 (ip), vehicle: saline with Tween-80
[7] = dose: 50.0 mg/kg/injection, schedule: Q01DX009 (ip), vehicle: saline with Tween-80
[8] = dose: 100.0 mg/kg/injection, schedule: Q01DX009 (ip), vehicle: saline with Tween-80
[9] = dose: 100.0 mg/kg/injection, schedule: Q04DX002 (ip), vehicle: saline with Tween-80
[10] = dose: 200.0 mg/kg/injection, schedule: Q01DX009 (ip), vehicle: saline with Tween-80
[11] = dose: 200.0 mg/kg/injection, schedule: Q04DX002 (ip), vehicle: saline with Tween-80
[12] = dose: 100.0 mg/kg/injection, schedule: Q04DX003 (ip), vehicle: saline
[13] = dose: 200.0 mg/kg/injection, schedule: Q04DX003 (ip), vehicle: saline
[14] = dose: 400.0 mg/kg/injection, schedule: Q04DX003 (ip), vehicle: saline
[15] = dose: 100.0 mg/kg/injection, schedule: Q01DX009 (ip), vehicle: saline
[16] = dose: 200.0 mg/kg/injection, schedule: Q01DX009 (ip), vehicle: saline
[17] = dose: 100.0 mg/kg/injection, schedule: Q04DX003 (ip), vehicle: saline with Tween-80
[18] = dose: 200.0 mg/kg/injection, schedule: Q04DX003 (ip), vehicle: saline with Tween-80
[19] = dose: 400.0 mg/kg/injection, schedule: Q04DX003 (ip), vehicle: saline with Tween-80
[20] = dose: 100.0 mg/kg/injection, schedule: Q04DX003 (ip), vehicle: Klucel (hydroxypropylcellulose) (HPC)
[21] = dose: 200.0 mg/kg/injection, schedule: Q04DX003 (ip), vehicle: Klucel (hydroxypropylcellulose) (HPC)
[22] = dose: 400.0 mg/kg/injection, schedule: Q04DX003 (ip), vehicle: Klucel (hydroxypropylcellulose) (HPC)

Measured: T/C

CCn1c2ccccc2c2ccc(C(C)=O)cc21
inactive: dose: 75.0 mg/kg/injection, schedule: Q01DX001 (ip), vehicle: carboxymethylcellulose (CMC) 95 % of control | dose: 150.0 mg/kg/injection, schedule: Q01DX001 (ip), vehicle: carboxymethylcellulose (CMC) 95 % of control | dose: 300.0 mg/kg/injection, schedule: Q01DX001 (ip), vehicle: carboxymethylcellulose (CMC) 97 % of control

COc1ccc2c(n1)Sc1c(Cl)nc(N)nc1N2
inactive: [1] 97 % of control | [2] 97 % of control | [3] 98 % of control

COc1ccc(C(C)(C)CC(=O)O)cc1OC
inactive: [4] 92 % of control | [5] 92 % of control | [6] 95 % of control

CCOc1ccc(-n2c(O)c(N=Nc3ccc(Cl)cc3)c(=O)n(-c3ccc(OC)cc3)c2=S)cc1
inactive: [1] 96 % of control | [2] 98 % of control | [3] 96 % of control

CCOC(=O)C1C(=O)Nc2c(ccc3ccccc23)N1C(C)=O (stereo not drawn)
inactive: dose: 50.0 mg/kg/injection, schedule: Q04DX002 (ip), vehicle: Klucel (hydroxypropylcellulose) (HPC) 96 % of control | dose: 100.0 mg/kg/injection, schedule: Q04DX002 (ip), vehicle: Klucel (hydroxypropylcellulose) (HPC) 93 % of control | dose: 200.0 mg/kg/injection, schedule: Q04DX002 (ip), vehicle: Klucel (hydroxypropylcellulose) (HPC) 93 % of control

CC(C)(C)SCC#CCSC(C)(C)C
inactive: [7] 100 % of control | [8] 118 % of control | [9] 103 % of control | [10] 96 % of control | [11] 100 % of control

NC(CNC(=O)Oc1ccccc1)C(=O)O (stereo not drawn)
inactive: [4] 95 % of control | [5] 103 % of control | [6] 92 % of control

CN(C)CCOc1ncnc2nc[nH]c12
inactive: [12] 101 % of control | [13] 102 % of control | [14] 96 % of control

COc1ccc(C(=S)N2CCN(c3ccc(C)cc3)CC2)cc1
inactive: dose: 100.0 mg/kg/injection, schedule: Q01DX001 (ip), vehicle: saline 98 % of control | dose: 200.0 mg/kg/injection, schedule: Q01DX001 (ip), vehicle: saline 95 % of control | dose: 400.0 mg/kg/injection, schedule: Q01DX001 (ip), vehicle: saline 95 % of control

CC1COCC(C)OCO1 (stereo not drawn)
inactive: dose: 50.0 mg/kg/injection, schedule: Q01DX009 (ip), vehicle: acetone 102 % of control | dose: 100.0 mg/kg/injection, schedule: Q01DX009 (ip), vehicle: acetone 102 % of control | dose: 100.0 mg/kg/injection, schedule: Q04DX003 (ip), vehicle: acetone 103 % of control | dose: 200.0 mg/kg/injection, schedule: Q01DX009 (ip), vehicle: acetone 101 % of control | dose: 200.0 mg/kg/injection, schedule: Q04DX003 (ip), vehicle: acetone 94 % of control | dose: 400.0 mg/kg/injection, schedule: Q04DX003 (ip), vehicle: acetone 114 % of control

CCOC(=O)c1nc2c(C)nc(N(C)C)nc2n(C)c1=O
inactive: [1] 100 % of control | [2] 97 % of control | [3] 94 % of control

CCN1C(=O)CN=C(c2ccccn2)c2cc(Cl)ccc21
inactive: [1] 95 % of control | [2] 101 % of control | [3] 96 % of control

CCOS(C)(=O)=O
inactive: dose: 50.0 mg/kg/injection, schedule: Q01DX009 (ip), vehicle: saline 98 % of control | [15] 101 % of control | dose: 100.0 mg/kg/injection, schedule: Q04DX003 (ip), vehicle: alcohol 102 % of control | [16] 104 % of control | dose: 200.0 mg/kg/injection, schedule: Q04DX003 (ip), vehicle: alcohol 102 % of control

CCCCCCCCCCCCN (tested in a mixture with another compound)
inactive: dose: 87.5 mg/kg/injection, schedule: Q01DX001 (ip), vehicle: Klucel (hydroxypropylcellulose) (HPC) 93 % of control

CC(C)CC(NC(=O)OCc1ccccc1)C(=O)O (stereo not drawn)
inactive: [8] 87 % of control | [17] 103 % of control | [10] 97 % of control | [18] 101 % of control | dose: 400.0 mg/kg/injection, schedule: Q01DX009 (ip), vehicle: saline with Tween-80 95 % of control | [19] 97 % of control

CN(C)N=Nc1c(Cl)cc(Cl)cc1Cl
inactive: [7] 107 % of control | [8] 100 % of control | [10] 107 % of control

N=c1ccccn1C(=O)C1=Cc2ccccc2OC1
inactive: [4] 103 % of control | [5] 100 % of control | [6] 96 % of control

C(=C\c1cnc2ccccc2n1)/c1ccc2c(c1)OCO2
inactive: dose: 100.0 mg/kg/injection, schedule: Q01DX009 (ip), vehicle: Klucel (hydroxypropylcellulose) (HPC) 89 % of control | [20] 95 % of control | dose: 200.0 mg/kg/injection, schedule: Q01DX009 (ip), vehicle: Klucel (hydroxypropylcellulose) (HPC) 92 % of control | [21] 91 % of control | dose: 400.0 mg/kg/injection, schedule: Q01DX009 (ip), vehicle: Klucel (hydroxypropylcellulose) (HPC) 97 % of control | [22] 93 % of control

CCOc1ccccc1NC(=O)c1cc2ccccc2cc1O
inactive: [15] 102 % of control | [12] 98 % of control | [16] 109 % of control | [13] 102 % of control | dose: 400.0 mg/kg/injection, schedule: Q01DX009 (ip), vehicle: saline 102 % of control | [14] 100 % of control

CC12CCC(O)CC1=CC=C1C2CCC2(C)C(OC(=O)c3ccccc3)CCC12 (stereo not drawn)
inactive: [4] 91 % of control | [5] 93 % of control | [6] 98 % of control

CCOC(C)C1C2CCCC(C)C21 (stereo not drawn)
inactive: [12] 102 % of control | [13] 96 % of control | [14] 93 % of control

O=C1c2cccc([N+](=O)[O-])c2C(=O)c2c1cccc2[N+](=O)[O-]
inactive: [9] 93 % of control | [11] 104 % of control | dose: 400.0 mg/kg/injection, schedule: Q04DX002 (ip), vehicle: saline with Tween-80 100 % of control

S=c1[nH]ccc2n[nH]nc12
inactive: [17] 101 % of control | [18] 98 % of control | [19] 101 % of control

O=C(O)C1(c2ccccc2)OC1c1ccccc1 (stereo not drawn)
inactive: [1] 93 % of control | [20] 95 % of control | [17] 90 % of control | [2] 91 % of control | [21] 95 % of control | [18] 86 % of control | [3] 93 % of control | [22] 86 % of control | [19] 92 % of control

COc1ccc(COc2ccc(OC)cc2)cc1
inactive: [17] 95 % of control | [18] 96 % of control | [19] 98 % of control

CCC(c1ccc2cc(OC)ccc2c1)C(C)(C)C(=O)O (stereo not drawn)
inactive: dose: 100.0 mg/kg/injection, schedule: Q01DX001 (sc), vehicle: steriod suspending solution 112 % of control | dose: 200.0 mg/kg/injection, schedule: Q01DX001 (sc), vehicle: steriod suspending solution 95 % of control | dose: 400.0 mg/kg/injection, schedule: Q01DX001 (sc), vehicle: steriod suspending solution 101 % of control

From PubChem BioAssay AID248 (DTP/NCI, 2004)
